Laboratory results taken from patent US20060276468A1, “Wood preservative formulations comprising Imazalil” (priority 2005, published 2006).
Entries after “also recorded” stand apart in the source; their conditions may differ.

Test system: decay organisms
Experiment: soil contact veneer exposure test: dip-treated Scots pine sapwood veneers half buried in damp compost, pulled by hand weekly until failure
Conditions: for average time for failure to occur (half life) / average time for failure to occur (half life), combination with imazalil sulfate / estimated expected average time for failure, combination with imazalil sulfate: Example 1; for average time for failure to occur (half life): biocide alone: 0.6% dichlorophen, 0.2% triclosan, 0.8% fenarimol, 0.8% PHMB, 0.4% imazalil sulfate, 6 veneers; for estimated expected half life for 1% fungicide plus 1% Imazalil sulfate / Half life for 1% fungicide plus 1% Imazalil sulfate / Half life for fungicide at 2% active ingredient (ai): Example 3; for synergy of the combination with imazalil sulfate: actual versus expected average time to failure; for half life, Low level with 0.8% Imazalil sulfate: 0.8% fungicide plus 0.8% imazalil sulfate, IMS; for average time for failure to occur (half life), combination with imazalil sulfate: 0.3% dichlorophen, 0.1% triclosan, 0.4% fenarimol or 0.4% PHMB, each plus 0.2% imazalil sulfate; for estimated expected average time for failure, combination with imazalil sulfate: midway between the two single biocides
Source text: The present invention also provides a simple exposure test for evaluating the wood preserving abilities of candidate ingredients or compositions. This exposure test is based on the premise that small dimension timber test specimens tend to fail more quickly than larger ones in soil contact situations.
It is preferable that the thickness of the veneers be greater than 0.1 mm, as veneers of lesser thickness can often be pulled apart by hand without undergoing exposure to decay organisms. Veneers which are thicker than 0.4 may take an excessive amount of time to fail the exposure test. In one embodiment, the thickness of the veneers is about 0.2 mm and the wood is the sapwood of the Scots pine (Pinus sylvestris). Other woods and thicknesses can be used. […] An example of convenient width and length dimensions are 15×50 mm. However, width and length are not critical provided they are kept consistent within a test, although very large or small length or width dimensions may be difficult to handle.
Accordingly, the test of the present invention comprises testing the integrity of a veneer after exposure to a decay-inducing environment. In one embodiment, this environment is damp compost in which decay organisms are present and water is present at just above the water holding capacity of the compost. If desired, other media can be used, and the test can be conducted at water contents which are below, at, or above the water-holding capacity of the media.
In general, the integrity of the veneer is inversely related to the length of exposure to the decay promoting environment. The integrity of the veneer can be tested by applying a force to the veneer and noting whether or not the veneer breaks. Thus, if wood preservative agents are applied to the veneers, these veneers would be expected to withstand longer exposure to the environment without breaking compared to control veneers without breaking.
The force applied to the veneers is preferably a force which pulls the two ends in opposite directions. The force can be applied by the use of an instrument or manually. If there is significant decay the veneer will break, generally near the junction between the portion submerged in the decay accelerating medium and the portion exposed to air. If the force is applied manually, it is preferable that the same individual conduct the test at the various exposure time points.
The veneers were cut such that both late wood and early wood were present in each veneer. The following biocides were tested: imazalil sulfate, dichlorophen, fenarimol, triclosan, and PHMB. To allow the mixing together of the five selected biocides in any combination the biocides were formulated such that they could be mixed together (all the percentages are mass/mass):
Test solutions were prepared and sets of veneers were dip treated such that there were 6 replicate veneers for each treatment under investigation. Additionally six veneers were dip treated in deionised water to act as water controls. […] Plastic containers (approximately 350×220 mm by at least 60 mm high) were part filled with John Innes Number 2 potting compost at a little above its water holding capacity. The veneers for this particular test were placed in six rows within a container such that approximately half the veneer was below the compost and half above. The veneers were placed in the compost such than those given a particular treatment were distributed throughout the container and were not grouped together. The containers, compost and veneers were weighed then incubated at about 30° C. and near 100% relative humidity in an incubator. Each week during the test the assembly was reweighed and deionised water added to bring it back to its original mass. After 3 weeks each veneer was examined in turn. It was held between the fore finger and thumb at each end and pulled to see if it could be broken. If it could be pulled apart a failure was recorded.

[1] = Example 5, additive expectation
[2] = Example 5, solutions in acetone
[3] = Example 10, solutions in IMS (alcohol)
[4] = unnumbered table, additive expectation
[5] = unnumbered table, solutions in IMS
[6] = Example 8, solutions in IMS (alcohol)

Oc1ccc(Cl)cc1Cc1cc(Cl)ccc1O [Dichlorophen, 2,2′-methylenebis[4-chlorophenol]]
average time for failure to occur (half life): 9.50 weeks | estimated expected half life for 1% fungicide plus 1% Imazalil sulfate (additive expectation): 12.92 weeks | Half life for 1% fungicide plus 1% Imazalil sulfate (solutions in IMS (alcohol)): 15.33 weeks | Half life for fungicide at 2% active ingredient (ai) (solutions in IMS (alcohol)): 19.83 weeks | half life, With Imazalil sulfate (Example 14, 0.3% dichlorophen plus 0.2% imazalil sulfate): 11.2 weeks | half life, No addition (Example 14, 0.6% dichlorophen or 0.4% imazalil sulfate alone): 9.5 weeks | expected half life, With Imazalil sulfate (Example 14, additive expectation): {7.4 weeks} | half life, With Imazalil sulfate (Example 15, 1.0% dichlorophen plus 1.0% imazalil sulfate, IMS (alcohol)): 19.67 weeks | half life, No addition (Example 15, 2.0% alone, solutions in IMS (alcohol)): 17.00 weeks | expected half life, With Imazalil sulfate (Example 15, additive expectation): {12.42 weeks} | Calculated half life (Example 16, 0.8% alone, solutions in IMS (alcohol)): 11.33 weeks | Calculated half life (Example 16, 0.8% dichlorophen plus 0.8% imazalil sulfate, IMS (alcohol)): 13.00 weeks | expected half life (Example 16, 0.8% dichlorophen plus 0.8% imazalil sulfate, additive expectation): {11.25 weeks} | Calculated half life (Example 16, 1.6% alone, solutions in IMS (alcohol)): 14.50 weeks | synergy of the combination with imazalil sulfate: positive synergy; also recorded: exceeded the expected value

CCCC1COC(Cn2cncn2)(c2ccc(Cl)cc2Cl)O1 (centres unmarked) [Propiconazole, 1-[[2-(2,4-dichlorophenyl)-4-propyl-1,3-dioxolan-2-yl]=methyl]-1H-1,2,4-triazole]
estimated expected half life for 1% fungicide plus 1% Imazalil [1]: {6.59 weeks} | Half life for 1% fungicide plus 1% Imazalil [2]: 7.33 weeks | Half life for fungicide at 2% ai [2]: 5.50 weeks | half life, Low level with 0.8% Imazalil (Example 10, 0.8% fungicide plus 0.8% imazalil, IMS (alcohol)): 6.17 weeks | estimated expected half life, Low level with 0.8% Imazalil (Example 10, additive expectation): (5.84 weeks) | half life, High level (1.6%) [3]: 5.50 weeks | half life, Low level (0.8%) [3]: 5.33 weeks

COC(=O)N(OC)c1ccccc1COc1ccn(-c2ccc(Cl)cc2)n1 [Pyraclostrobin, methyl N-{2-[1-(4-chlorophenyl)-1H-pyrazol-3-yloxymethyl]phenyl}(N-methoxy)carbamate]
estimated expected half life for 1% fungicide plus 1% Imazalil sulfate (additive expectation): 6.09 weeks | Half life for 1% fungicide plus 1% Imazalil sulfate (solutions in IMS (alcohol)): 6.50 weeks | Half life for fungicide at 2% active ingredient (ai) (solutions in IMS (alcohol)): 6.17 weeks

CCCCCCCCn1sc(Cl)c(Cl)c1=O [RH 287, 4,5-dichloro-2-n-octyl-3(2H)-isothiazolone]
estimated expected half life for 1% fungicide plus 1% Imazalil [1]: {15.09 weeks} | Half life for 1% fungicide plus 1% Imazalil [2]: 19.33 weeks | Half life for fungicide at 2% ai [2]: 22.50 weeks

O=C(Nc1ccccc1)c1ccccc1O [Salicylanilide, 2-hydroxy-N-phenylbenzamide]
half life, Low level with 0.8% Imazalil sulfate (unnumbered table): 6.50 weeks | expected half life, Low level with 0.8% Imazalil sulfate [4]: {6.34 weeks} | half life, High level (1.6%) [5]: 5.67 weeks | half life, Low level (0.8%) [5]: 4.83 weeks

CCCCCCCCCCCCN(CCCN)CCCN [Triameen Y 12D-30, N,N-bis(3-aminopropyl)dodeclamine]
estimated expected half life, Low level (0.8%) plus 0.8% Imazalil (Example 8, additive expectation): {5.75 weeks} | half life, High level (1.6%) [6]: 5.00 weeks | half life, Low level (0.8%) [6]: 4.33 weeks | half life, Low level (0.8%) plus 0.8% Imazalil [6]: 6.00 weeks

Oc1cc(Cl)ccc1Oc1ccc(Cl)cc1Cl [Trichlosan, 5-chloro-2-(2,4-dichlorophenoxy)phenol]
average time for failure to occur (half life), combination with imazalil sulfate: 5.50 weeks | estimated expected average time for failure, combination with imazalil sulfate (additive expectation): (4.75) weeks | average time for failure to occur (half life): ~4.33 weeks | synergy of the combination with imazalil sulfate: positive synergy

CCCCCCCCCCCCCN1CC(C)OC(C)C1 (centres unmarked) [Tridemorph, 4-alkyl-2,6-dimethylmorpholine]
estimated expected half life for 1% fungicide plus 1% Imazalil sulfate (additive expectation): 5.42 weeks | Half life for 1% fungicide plus 1% Imazalil sulfate (solutions in IMS (alcohol)): 6.33 weeks | Half life for fungicide at 2% active ingredient (ai) (solutions in IMS (alcohol)): 4.83 weeks

N,N-didecyl-N-methyl-poly(oxethyl)ammonium propionate [Bardap 26]
half life, Low level with 0.8% Imazalil sulfate: 4.83 weeks | average time for failure to occur, quat with Imazalil sulfate (Example 2, 0.18% active quat plus 0.30% imazalil sulfate (Table 3; text b187 says 0.2%)): 5.33 weeks | average time for failure to occur, Quat Only (Example 2, 0.36% active quat in deionised water): 5.00 weeks | estimated expected average time for failure, quat with Imazalil sulfate (Example 2, additive expectation): 5.34 weeks | synergy of the combination with imazalil sulfate: approximates that predicted in the case of no synergy | expected half life, Low level with 0.8% Imazalil sulfate (additive expectation): {5.50 weeks} | half life, High level (1.6%) (solutions in IMS): 5.17 weeks | half life, Low level (0.8%) (solutions in IMS): 4.67 weeks

Poly(hexamethylenebiguanide)hydrochloride [PHMB]
average time for failure to occur (half life), combination with imazalil sulfate: 5.17 weeks | estimated expected average time for failure, combination with imazalil sulfate (additive expectation): (5.00) weeks | average time for failure to occur (half life): 4.83 weeks | synergy of the combination with imazalil sulfate: positive synergy

alkyl dimethyl benzyl ammonium chloride [BAC]
estimated expected half life for 1% fungicide plus 1% Imazalil sulfate (additive expectation): 5.59 weeks | Half life for 1% fungicide plus 1% Imazalil sulfate (solutions in IMS (alcohol)): 6.17 weeks | Half life for fungicide at 2% active ingredient (ai) (solutions in IMS (alcohol)): 5.17 weeks | half life, Low level with 0.8% Imazalil sulfate (unnumbered table): 6.00 weeks | expected half life, Low level with 0.8% Imazalil sulfate [4]: {592 weeks} | half life, High level (1.6%) [5]: 4.83 weeks | half life, Low level (0.8%) [5]: 4.67 weeks

copper naphthenate [Copper (as copper naphthenate)]
estimated expected half life for 1% fungicide plus 1% Imazalil (Example 6, additive expectation): {10.50 weeks} | Half life for fungicide at 2% ai (Example 6, solutions in xylene): 14.83 weeks | Half life for 1% fungicide plus 1% Imazalil (Example 6, solutions in xylene, 1% copper): 11.67 weeks
